According to US10646488B2 (Araxes Pharma LLC, priority 2016, dated 2020):

Each molecule was assayed against T1, KRAS G12C 1-169, his-tagged protein, GDP-loaded (Homo sapiens, UniProt P01116, G12C) (assay: Covalent binding (% modification) to KRAS G12C by mass spectrometry). Details: % modification at 10 min (footnote †).
T1 construct: KRAS G12C 1-169, his-tagged protein, GDP-loaded
Description: Test compounds were prepared as 10 mM stock solutions in DMSO (Fisher cat # BP-231-100). KRAS G12C 1-169, his-tagged protein, GDP-loaded was diluted to 2 μm in buffer (20 mM Hepes, 150 mM NaCl, 1 mM MgCl2). Compounds were tested for activity as follows:
Compounds were diluted to 50× final test concentration in DMSO in 96-well storage plates. Compound stock solutions were vortexed before use and observed carefully for any sign of precipitation. Dilutions were as follow: • For 100 μM final compound concentration, compounds were diluted to 5000 μM (5 μl 10 mM compound stock+5 μl DMSO and mixed well by pipetting. • For 30 μM final compound concentration, compounds were diluted to 1500 μM (3 μl 10 mM compound stock+17 μl DMSO) and mixed well by pipetting. • For 10 μM final compound concentration, compounds were diluted to 500 μM (2 μl 10 mM compound stock+38 μl DMSO) and mixed well by pipetting. 49 μl of the stock protein solution was added to each well of a 96-well PCR plate (Fisher cat #1423027). 1 μl of the diluted 50× compounds were added to appropriate wells in the PCR plate using 12-channel pipettor. Reactions were mixed carefully and thoroughly by pipetting up/down with a 200·1 multi-channel pipettor. […] 5 μl of 2% formic acid (Fisher cat # A117) in DI H2O was then added to each well followed by mixing with a pipette. The plate was then resealed with aluminum seal and stored on dry ice until analyzed as described below.
The above described assays were analyzed by mass spectrometry according to one of the following two procedures:
The MS instrument is set to positive polarity, 2 GHz resolution, and low mass (1700) mode and allowed to equilibrate for 30 minutes. The instrument is then calibrated, switched to acquisition mode and the appropriate method loaded.
After another 30 minute equilibration time, a blank batch (i.e., buffer) is run to ensure equipment is operating properly. The samples are thawed at 37° C. for 10 minutes, briefly centrifuged, and transfer to the bench top. Wells A1 and H12 are spiked with 1 uL 500 uM internal standard peptide, and the plates centrifuged at 2000×g for 5 minutes. The method is then run and masses of each individual well recorded.
The masses (for which integration data is desired) for each well are pasted into the platemap and exported from the analysis. Masses for the internal standards are exported as well. The data at 50 ppm is extracted for the +19 charge state, and identity of well A1 is assigned using the internal standard spike and integrated. Peak data is exported as a TOF list and the above steps are repeated individually, for the +20, 21, 22, 23, 24, and 25 charge states.
The masses and peak intensities of KRAS G12C protein species were measured using a Dionex RSLCnano system (Thermo Scientific) connected to a Q Exactive Plus mass spectrometer (Thermo Scientific).
[…] of sample was each loaded onto a Aeris™ 3.6 μm WIDEPORE C4 200 Å, LC Column 50×2.1 mm column maintained at 40° C. at a flow rate of 600 μl min^−1 with […] (0.1% formic acid in acetonitrile). The liquid chromatography conditions were 20% solvent B for 1 min, 20% to 60% solvent B for 1.5 min, 60% to 90% solvent for 0.5 min, 90% solvent B for 0.2 min, 90% to 20% solvent B for 0.2 min, and then equilibrated for 1.6 min before the following sample injection. The flow rate was maintained at 600 μl min^−1 throughout the sample analysis.
The mass spectrometer was operated in profile mode at a resolution of 17500, 5 microscans, using 50 msec max injection time and an AGC target of 1e6, and a full mass range from 800-1850 m/z was recorded. The HCD trapping gas was optimized for maximum sensitivity for intact proteins. The ionization method was electrospray ionization, which used a spray voltage of 4 kV, sheath gas flow set to 50 au, auxiliary gas flow set to 10 au and sweep gas flow set to 1 au. […]

Compound | Binding %
C[C@@H]1CN(c2nc(N3CC(N(C)C)C3)nc3c(F)c(-c4c(O)cccc4F)c(Cl)cc23)[C@@H](C)CN1C(=O)C1CO1 (stereo partly drawn) [Compound 115, ((2R,5S)-4-(6-chloro-2-(3-(dimethylamino)azetidin-1-yl)-8-fluoro-7-(2-fluoro-6-hydroxyphenyl)quinazolin-4-yl)-2,5-dimethyl-piperazin-1-yl) (oxiran-2-yl) methanone] | + (+ indicates binding activity greater than 0% and up to 50%)

Same assay, conditions: covalent binding to KRAS G12C after a ten minute incubation period

Compound | Binding %
C=CC(=O)N1[C@H](C)CN(c2nc(N)nc3c(F)c(-c4c(C)ccc5cn[nH]c45)c(Cl)cc23)C[C@@H]1C [Compound 15, 1-((2S,6R)-4-(2-amino-6-chloro-8-fluoro-7-(6-methyl-1H-indazol-7-yl)quinazolin-4-yl)-2,6-dimethyl-piperazin-1-yl) prop-2-en-1-one] | ++ (++ indicates binding activity from 50 to 90%)
C=CC(=O)N1C[C@@H](C)N(c2nc(OCCc3ccccn3)nc3c(F)c(-c4c(O)cccc4F)c(Cl)cc23)[C@@H](C)C1 [Compound 49, 1-((3S,5R)-4-(6-chloro-8-fluoro-7-(2-fluoro-6-hydroxyphenyl)-2-(2-(pyridin-2-yl)ethoxy)quinazolin-4-yl)-3,5-dimethyl-piperazin-1-yl) prop-2-en-1-one] | ++ (++ indicates binding activity from 50 to 90%)
C=CC(=O)N1C[C@H](C)N(c2nc(N3CC(N(C)C)C3)nc3c(F)c(-c4c(C)ccc5cn[nH]c45)c(Cl)cc23)C[C@H]1C (atropisomer, axis not shown) [Compound 72, 1-((2R,5S)-4-((R)-6-chloro-2-(3-(dimethylamino)azetidin-1-yl)-8-fluoro-7-(6-methyl-1H-indazol-7-yl)quinazolin-4-yl)-2,5-dimethyl-piperazin-1-yl) prop-2-en-1-one] | +++ (+++ indicates binding activity greater than 90%)
C=CC(=O)N1C[C@H](C)N(c2nc(OC3CCN(C(C)C)CC3)nc3c(F)c(-c4c(C)ccc5[nH]ncc45)c(Cl)cc23)C[C@H]1C [Compound 79, 1-((2R,5S)-4-(6-chloro-8-fluoro-2-((1-isopropyl-piperidin-4-yl)oxy)-7-(5-methyl-1H-indazol-4-yl)quinazolin-4-yl)-2,5-dimethyl-piperazin-1-yl) prop-2-en-1-one] | +++ (+++ indicates binding activity greater than 90%)
C=CC(=O)N1CCN(c2nc(N3CC(N(C)C)C3)nc3c(F)c(-c4c(O)cccc4F)c(Cl)cc23)C[C@@H]1C [Compound 82, 1-((2S)-4-(6-chloro-2-(3-(dimethylamino)azetidin-1-yl)-8-fluoro-7-(2-fluoro-6-hydroxyphenyl)quinazolin-4-yl)-2-methyl-piperazin-1-yl) prop-2-en-1-one] | ++ (++ indicates binding activity from 50 to 90%)
C=CC(=O)N1C[C@@H](C)N(c2nc(N3CC(N(C)C)C3)nc3c(F)c(-c4c(C)ccc5[nH]ncc45)c(Cl)cc23)[C@@H](C)C1 [Compound 40, 1-((3S,5R)-4-(6-chloro-2-(3-(dimethylamino)azetidin-1-yl)-8-fluoro-7-(5-methyl-1H-indazol-4-yl)quinazolin-4-yl)-3,5-dimethyl-piperazin-1-yl) prop-2-en-1-one] | ++ (++ indicates binding activity from 50 to 90%)
C=CC(=O)N1CCN(c2nc(NC3CCN(C4CC4)CC3)nc3c(F)c(-c4c(C)ccc5[nH]ncc45)c(Cl)cc23)[C@@H](C)C1 (atropisomer, axis not shown) [Compound 14, 1-((S)-4-(6-chloro-2-((1-cyclopropyl-piperidin-4-yl)amino)-8-fluoro-7-((S)-5-methyl-1H-indazol-4-yl)quinazolin-4-yl)-3-methyl-piperazin-1-yl) prop-2-en-1-one] | + (+ indicates binding activity up to 50%)

Same assay, conditions: covalent binding to KRAS G12C after a three minute incubation period

Compound | Binding %
C=CC(=O)N1C[C@H](C)N(c2nc(Oc3cnn(C)c3)nc3c(F)c(-c4c(O)cccc4F)c(Cl)cc23)C[C@H]1C [Compound 225, 1-((2R,5S)-4-(6-chloro-8-fluoro-7-(2-fluoro-6-hydroxyphenyl)-2-(1-methyl-1H-pyrazol-4-yloxy)quinazolin-4-yl)-2,5-dimethyl-piperazin-1-yl) prop-2-en-1-one] | ++ (++ indicates binding activity from 50 to 90%)
C=CC(=O)N1C[C@H](C)N(c2nc(N3CC(C)(N(C)C)C3)nc3c(F)c(-c4c(C)ccc5[nH]ncc45)c(Cl)cc23)C[C@H]1C [Compound 121, 1-((2R,5S)-4-(6-chloro-2-(3-(dimethylamino)-3-methylazetidin-1-yl)-8-fluoro-7-(5-methyl-1H-indazol-4-yl)quinazolin-4-yl)-2,5-dimethyl-piperazin-1-yl) prop-2-en-1-one] | ++ (++ indicates binding activity from 50 to 90%)
[2H]C([2H])([2H])N(C1CN(c2nc(N3C[C@@H](C)N(C(=O)C=C)C[C@@H]3C)c3cc(Cl)c(-c4c(O)cccc4F)c(F)c3n2)C1)C([2H])([2H])[2H] (atropisomer, axis not shown) [Compound 212, 1-((2R,5S)-4-(2-(3-(bis(triduetero-methyl)amino)azetidin-1-yl)-6-chloro-8-fluoro-7-((R)-2-fluoro-6-hydroxyphenyl)quinazolin-4-yl)-2,5-dimethyl-piperazin-1-yl) prop-2-en-1-one] | + (+ indicates binding activity greater than 0% and up to 50%)
C[C@@H]1CN(c2nc(N3CC(N(C)C)C3)nc3c(F)c(-c4c(O)cccc4F)c(Cl)cc23)[C@@H](C)CN1C(=O)/C(C#N)=C/c1ccccn1 [Compound 111, (E)-2-((2R,5S)-4-(6-chloro-2-(3-(dimethylamino)azetidin-1-yl)-8-fluoro-7-(2-fluoro-6-hydroxyphenyl)quinazolin-4-yl)-2,5-dimethyl-piperazine-1-carbonyl)-3-(pyridin-2-yl) acrylonitrile] | + (+ indicates binding activity greater than 0% and up to 50%)
C=CC(=O)N1C[C@H](C)N(c2nc(N3CC4(CCCN(C)C4)C3)nc3c(F)c(-c4c(C)ccc5[nH]ncc45)c(Cl)cc23)C[C@H]1C [Compound 194, 1-((2R,5S)-4-(6-chloro-8-fluoro-7-(5-methyl-1H-indazol-4-yl)-2-(6-methyl-2,6-diazaspiro[3.5]nonan-2-yl)quinazolin-4-yl)-2,5-dimethyl-piperazin-1-yl) prop-2-en-1-one] | ++ (++ indicates binding activity from 50 to 90%)
C=CC(=O)N1C[C@H](C)N(c2nc(N3CC4(CCN(C5CC5)CC4)C3)nc3c(F)c(-c4c(O)cccc4F)c(Cl)cc23)C[C@H]1C [Compound 173, 1-((2R,5S)-4-(6-chloro-2-(7-cyclopropyl-2,7-diazaspiro[3.5]nonan-2-yl)-8-fluoro-7-(2-fluoro-6-hydroxyphenyl)quinazolin-4-yl)-2,5-dimethyl-piperazin-1-yl) prop-2-en-1-one] | ++ (++ indicates binding activity from 50 to 90%)
C=CC(=O)N1C[C@H](C)N(c2nc(N3CC(N(C)C4CC4)C3)nc3c(F)c(-c4c(O)cccc4F)c(Cl)cc23)C[C@H]1C [Compound 106, 1-((2R,5S)-4-(6-chloro-2-(3-(cyclopropyl (methyl)amino)azetidin-1-yl)-8-fluoro-7-(2-fluoro-6-hydroxyphenyl)quinazolin-4-yl)-2,5-dimethyl-piperazin-1-yl) prop-2-en-1-one] | ++ (++ indicates binding activity from 50 to 90%)
